Results from ChEMBL document CHEMBL1152150, “Interaction of ladder-shaped polyethers with transmembrane alpha-helix of glycophorin A as evidenced by saturation transfer difference NMR and surface plasmon resonance” (Bioorg Med Chem Lett, 2008).
Calls of active or inactive are those of the source. No cut-off for these calls is given here.

Tests used:
Glycophorin-A [1] = molecular target: T1, Glycophorin-A (Homo sapiens, UniProt P02724); assay: Binding affinity to transmembrane alpha-helix of glycophorin A by surface plasmon resonance method
T1 sequence (P02724 whole entry): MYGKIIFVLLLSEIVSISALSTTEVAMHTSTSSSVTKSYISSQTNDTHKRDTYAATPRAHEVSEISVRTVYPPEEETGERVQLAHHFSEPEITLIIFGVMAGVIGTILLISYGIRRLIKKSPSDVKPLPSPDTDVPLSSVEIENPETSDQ

[2] = Binding affinity to transmembrane alpha-helix of glycophorin A 2G/2I mutant by surface plasmon resonance method
Glycophorin-A [3] = molecular target: T1, Glycophorin-A; assay: Binding affinity to transmembrane alpha-helix of glycophorin A by saturation transfer difference NMR

| SMILES | Kd (Glycophorin-A [1]) [µM] | Kd [2] [µM] | Activity (Glycophorin-A [3]) |
| --- | --- | --- | --- |
| C=CCC(=C)/C=C/[C@@](C)(O)[C@H]1O[C@@H]2C[C@@H]3O[C@@H]4C[C@@H]5O[C@@H]6C[C@@H]7O[C@@H]8C[C@@H]9O[C@@H]%10C[C@@H]%11O[C@](C)(CCO)[C@@H](O)C[C@H]%11O[C@H]%10C[C@H]9O[C@H]8CC[C@@]7(C)O[C@@]6(C)CC[C@H](C)[C@H]5O[C@H]4C[C@@]3(C)O[C@H]2CC1=C [DESULFATED YESSOTOXIN] | 270 | 99 | – |
| C[C@@]12CC[C@@H]3O[C@@H]4C[C@@H]5O[C@@H]6C[C@H](O)[C@@H](CO)O[C@H]6CC[C@@]5(C)O[C@H]4C[C@H]3O[C@H]1C[C@H]1O[C@@H](CCOCc3ccccc3)[C@H](OCc3ccccc3)C[C@@H]1O2 | 48 | 7.7 | – |
| C=CCC(=C)/C=C/[C@@](C)(O)[C@H]1O[C@@H]2C[C@@H]3O[C@@H]4C[C@@H]5O[C@@H]6C[C@@H]7O[C@@H]8C[C@@H]9O[C@@H]%10C[C@@H]%11O[C@](C)(CCOS(=O)(=O)O)[C@@H](OS(=O)(=O)O)C[C@H]%11O[C@H]%10C[C@H]9O[C@H]8CC[C@@]7(C)O[C@@]6(C)CC[C@H](C)[C@H]5O[C@H]4C[C@@]3(C)O[C@H]2CC1=C [YESSOTOXIN] | 120 | 85 | Active |
| OC[C@H]1O[C@@H](COCc2ccccc2)[C@H](OCc2ccccc2)C[C@@H]1O | 2400 | 860 | – |
| C[C@@]12CC[C@@H]3O[C@H](CO)[C@@H](O)C[C@H]3O[C@H]1C[C@H]1O[C@@H](COCc3ccccc3)[C@H](OCc3ccccc3)C[C@@H]1O2 | 240 | 150 | – |
